Here are results for one compound from paper PMC10138554, “Insights into the Microbicidal, Antibiofilm, Antioxidant and Toxicity Profile of New O-Aryl-Carbamoyl-Oxymino-Fluorene Derivatives” (International Journal of Molecular Sciences, 2023).

In brackets after ≈: the same amount, converted by molar mass.

This data set in a line: Toxicity on the Artemia franciscana Kellog crustacean species (lethality of nauplii). As to conditions: Artemia franciscana Kellog (brine shrimp nauplii), in vivo, other: nauplii placed in contact with the test suspensions, four-parameter logistic model. The data set is classed as in vivo. The method, then:
The oocysts (Great Salt Lake, USA) provided by S.K. Trading were grown on artificial seawater medium (Coral Marine, Grotech), dissolved in distilled water with a few minutes of sonication, at 30 g/L concentration. The test was carried out in a 24-well plate, using three replicates. Because of their low solubility, the compounds 1a–d were suspended in the culture medium using sodium alginate (0.045%) (also used a negative control), the testing being carried out at the solubility limit. The concentrations 100, 50, 25, 12.5 and 6.2 μg/mL used for each substance were obtained by successive dilutions starting from the initial suspension. Between 10 and 15 nauplii per well were collected and placed in contact with the test suspensions (1.5 mL/well). All nauplii, dead or alive, were counted and recorded within 24 h of being placed in contact with the tested suspensions. The non-linear modeling of the concentration-lethality relationship was achieved through a four-parameter logistics model (4PL), implemented in several robust variants for estimating parameters in the R package “dr4pl” [78].

What is called LC50 is the concentration lethal to half of the exposed cells or organisms. Read a low LC50 as greater toxicity. `O=C(Nc1ccc(Cl)c(Cl)c1)ON=C1c2ccccc2-c2ccccc21` [Compound 1d, 9-((3,4-dichloro-phenyl)carbamoyloxymino)fluoren]: the LC50 at 24 h was 14.6 µg/mL (≈ 38.2 µM).
